Biological target: c-fms (Homo sapiens, UniProt P07333)
Experiment: c-fms autophosphorylation, fluorescence polarization competition immunoassay
Format: biochemical
Conditions: 10 nM c-fms, 1 mM ATP; for inhibition at 0.1 µM: test concentration 0.1 μM, read-out: c-fms Autophosphorylation Percent Inhibition, % @ 0.1 μM; for inhibition at 1 µM: test concentration 1 μM, read-out: c-fms Autophosphorylation Percent Inhibition, % @ 1 μM
Description: The assay buffer used was 100 mM 4-(2-hydroxyethyl)piperazine 1-ethanesulfonic acid (HEPES), pH 7.5, 1 mM 1,4-dithio-DL-threitol (DTT), 0.01% (v/v) Tween-20. Compounds were diluted in assay buffer containing 4% dimethylsulfoxide (DMSO) just prior to the assay. To each well, 5 μL of compound were added followed by the addition of 3 μL of a mix containing 33 nM c-fms and 16.7 mM MgCl2 (Sigma) in assay buffer. The kinase reaction was initiated by adding 2 μL of 5 mM ATP (Sigma) in assay buffer. The final concentrations in the assay were 10 nM c-fms, 1 mM ATP, 5 mM MgCl2, 2% DMSO. Control reactions were ran in each plate: in positive and negative control wells, assay buffer (made 4% in DMSO) was substituted for the compound; in addition, positive control wells received 1.2 μL of 50 mM ethylenediaminetetraaceticacid (EDTA).
The plates were incubated at room temperature for 45 min. At the end of the incubation, the reaction was quenched with 1.2 μL of 50 mM EDTA (EDTA was not added to the positive control wells at this point; see above). Following a 5-min incubation, each well received 10 μL of a 1:1:3 mixture of anti-phosphotyrosine antibody, 10X, PTK green tracer, 10X (vortexed), FP dilution buffer, respectively (all from PanVera, cat. # P2837). The plate was covered, incubated for 30 min at room temperature and the fluorescence polarization was read on the Analyst. The instrument settings were: 485 nm excitation filter; 530 nm emission filter; Z height: middle of well; G factor: 0.93.
The percent inhibition is shown in Table 1 at the indicated test concentration. The IC50 shown in Table 2 are averages of three independent measurements.

c-fms, sequence (P07333 20-972): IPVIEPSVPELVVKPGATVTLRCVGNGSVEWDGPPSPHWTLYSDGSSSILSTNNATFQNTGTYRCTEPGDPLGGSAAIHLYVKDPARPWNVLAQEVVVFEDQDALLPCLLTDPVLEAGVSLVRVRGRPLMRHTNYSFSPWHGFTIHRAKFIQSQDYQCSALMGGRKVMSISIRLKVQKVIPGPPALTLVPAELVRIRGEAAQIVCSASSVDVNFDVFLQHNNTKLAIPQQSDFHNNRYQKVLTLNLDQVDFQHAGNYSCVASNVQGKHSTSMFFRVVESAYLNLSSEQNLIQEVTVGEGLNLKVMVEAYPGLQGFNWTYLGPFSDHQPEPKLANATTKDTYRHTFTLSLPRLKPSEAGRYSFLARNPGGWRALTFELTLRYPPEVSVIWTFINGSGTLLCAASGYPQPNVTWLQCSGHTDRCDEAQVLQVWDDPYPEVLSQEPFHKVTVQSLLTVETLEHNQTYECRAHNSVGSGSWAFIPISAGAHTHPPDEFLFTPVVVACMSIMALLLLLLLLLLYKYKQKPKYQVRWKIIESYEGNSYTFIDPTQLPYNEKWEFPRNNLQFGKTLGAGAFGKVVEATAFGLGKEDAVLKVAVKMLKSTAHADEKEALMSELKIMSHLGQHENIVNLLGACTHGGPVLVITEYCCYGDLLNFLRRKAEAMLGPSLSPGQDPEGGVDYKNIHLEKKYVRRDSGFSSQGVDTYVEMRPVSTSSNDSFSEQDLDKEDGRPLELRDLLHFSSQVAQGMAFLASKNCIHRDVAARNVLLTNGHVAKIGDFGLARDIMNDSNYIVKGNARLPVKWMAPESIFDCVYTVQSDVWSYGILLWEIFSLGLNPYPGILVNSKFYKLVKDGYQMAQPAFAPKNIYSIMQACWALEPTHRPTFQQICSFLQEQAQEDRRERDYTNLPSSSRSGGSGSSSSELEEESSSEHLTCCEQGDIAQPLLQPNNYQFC

| SMILES | inhibition at 0.1 µM [%] | inhibition at 1 µM [%] | IC50 (average of three independent measurements) [µM] |
| --- | --- | --- | --- |
| CONC(=O)c1cn(-c2ccc3c(c2)CCC3)c2nc(NCCc3ccc(OC)cc3)ncc2c1=O [Cpd 24, 8-Indan-5-yl-2-[2-(4-methoxy-phenyl)-ethylamino]-5-oxo-5,8-dihydro-pyrido[2,3-d]pyrimidine-6-carboxylic acid methoxy-amide] | 52 | 59 |  |
| COc1ccc(CCNc2ncc3c(=O)c(C(N)=O)cn(C4CCCCC4)c3n2)cc1 [Cpd 37, 8-Cyclohexyl-2-[2-(4-methoxy-phenyl)-ethylamino]-5-oxo-5,8-dihydro-pyrido[2,3-d]pyrimidine-6-carboxylic acid amide] | 29 | 41 |  |
| CONC(=O)c1cn(C2CCCCC2)c2nc(NCCCN(C)C)ncc2c1=O [Cpd 42, 8-Cyclohexyl-2-(3-dimethylamino-propylamino)-5-oxo-5,8-dihydro-pyrido[2,3-d]pyrimidine-6-carboxylic acid methoxy-amide] | 17 | 40 |  |
| CNC(=O)c1cn(C2CCCCC2)c2nc(NCCOC)ncc2c1=O [Cpd 57, 8-Cyclohexyl-2-(2-methoxy-ethylamino)-5-oxo-5,8-dihydro-pyrido[2,3-d]pyrimidine-6-carboxylic acid methylamide] | 16 | 20 |  |
| CONC(=O)c1cn(-c2ccc3c(c2)CCC3)c2nc(NCCN3CCCCC3)ncc2c1=O [Cpd 25, 8-Indan-5-yl-5-oxo-2-(2-piperidin-1-yl-ethylamino)-5,8-dihydro-pyrido[2,3-d]pyrimidine-6-carboxylic acid methoxy-amide] | 6 | 30 |  |
| NC(=O)c1cn(C2CCCCC2)c2nc(NCCN3CCOCC3)ncc2c1=O [Cpd 39, 8-Cyclohexyl-2-(2-morpholin-4-yl-ethylamino)-5-oxo-5,8-dihydro-pyrido[2,3-d]pyrimidine-6-carboxylic acid amide] | 21 | 59 |  |
| CNC(=O)c1cn(C2CCCCC2)c2nc(NCCCN(C)C)ncc2c1=O [Cpd 54, 8-Cyclohexyl-2-(3-dimethylamino-propylamino)-5-oxo-5,8-dihydro-pyrido[2,3-d]pyrimidine-6-carboxylic acid methylamide] | 6 | 26 |  |
| NC(=O)c1cn(-c2ccc3c(c2)CCC3)c2nc(NCCCN3CCCC3=O)ncc2c1=O [Cpd 8, 8-Indan-5-yl-5-oxo-2-[3-(2-oxo-pyrrolidin-1-yl)-propylamino]-5,8-dihydro-pyrido[2,3-d]pyrimidine-6-carboxylic acid amide] | 15 | 46 |  |
| CNC(=O)c1cn(C2CCCCC2)c2nc(NCCCOC)ncc2c1=O [Cpd 56, 8-Cyclohexyl-2-(3-methoxy-propylamino)-5-oxo-5,8-dihydro-pyrido[2,3-d]pyrimidine-6-carboxylic acid methylamide] | 6 | 23 |  |
| CNC(=O)c1cn(C2CCCCC2)c2nc(NCCN3CCOCC3)ncc2c1=O [Cpd 60, 8-Cyclohexyl-2-(2-morpholin-4-yl-ethylamino)-5-oxo-5,8-dihydro-pyrido[2,3-d]pyrimidine-6-carboxylic acid methylamide] | 12 | 18 |  |
| CN1CCN(CCCNc2ncc3c(=O)c(C(N)=O)cn(C4CCCCC4)c3n2)CC1 [Cpd 33, 8-Cyclohexyl-2-[3-(4-methyl-piperazin-1-yl)-propylamino]-5-oxo-5,8-dihydro-pyrido[2,3-d]pyrimidine-6-carboxylic acid amide] | 31 | 70 |  |
| CONC(=O)c1cn(C2CCCCC2)c2nc(NCCc3ccc(OC)cc3)ncc2c1=O [Cpd 49, 8-Cyclohexyl-2-[2-(4-methoxy-phenyl)-ethylamino]-5-oxo-5,8-dihydro-pyrido[2,3-d]pyrimidine-6-carboxylic acid methoxy-amide] | 38 | 68 |  |
| NC(=O)c1cn(C2CCCCC2)c2nc(NCCCn3ccnc3)ncc2c1=O [Cpd 28, 8-Cyclohexyl-2-(3-imidazol-1-yl-propylamino)-5-oxo-5,8-dihydro-pyrido[2,3-d]pyrimidine-6-carboxylic acid amide] | 31 | 69 |  |
| COCCCNc1ncc2c(=O)c(C(=O)NOC)cn(C3CCCCC3)c2n1 [Cpd 44, 8-Cyclohexyl-2-(3-methoxy-propylamino)-5-oxo-5,8-dihydro-pyrido[2,3-d]pyrimidine-6-carboxylic acid methoxy-amide] | 26 | 62 |  |
| CNC(=O)c1cn(-c2ccc3c(c2)CCC3)c2nc(NCCOC)ncc2c1=O [Cpd 16, 8-Indan-5-yl-2-(2-methoxy-ethylamino)-5-oxo-5,8-dihydro-pyrido[2,3-d]pyrimidine-6-carboxylic acid methylamide] | 12 | 39 |  |
| CONC(=O)c1cn(C2CCCCC2)c2nc(NCCCN3CCCC3)ncc2c1=O [Cpd 46, 8-Cyclohexyl-5-oxo-2-(3-pyrrolidin-1-yl-propylamino)-5,8-dihydro-pyrido[2,3-d]pyrimidine-6-carboxylic acid methoxy-amide] | 28 | 51 |  |
| NC(=O)c1cn(C2CCCCC2)c2nc(NCCCN3CCCC3)ncc2c1=O [Cpd 34, 8-Cyclohexyl-5-oxo-2-(3-pyrrolidin-1-yl-propylamino)-5,8-dihydro-pyrido[2,3-d]pyrimidine-6-carboxylic acid amide] | 31 | 64 |  |
| NC(=O)c1cn(C2CCCCC2)c2nc(NCCN3CCCCC3)ncc2c1=O [Cpd 38, 8-Cyclohexyl-5-oxo-2-(2-piperidin-1-yl-ethylamino)-5,8-dihydro-pyrido[2,3-d]pyrimidine-6-carboxylic acid amide] | 19 | 56 |  |

The next lines start with the values.

| inhibition at 0.1 µM [%] | inhibition at 1 µM [%] | IC50 (average of three independent measurements) [µM] | SMILES |
| --- | --- | --- | --- |
|  |  | 3.3 | NC(=O)c1cn(-c2ccc3c(c2)CCC3)c2nc(NCCN3CCOCC3)ncc2c1=O [Cpd 4, 8-Indan-5-yl-2-(2-morpholin-4-yl-ethylamino)-5-oxo-5,8-dihydro-pyrido[2,3-d]pyrimidine-6-carboxylic acid amide] |
| 8 | 29 |  | CNC(=O)c1cn(-c2ccc3c(c2)CCC3)c2nc(NCCCN3CCN(C)CC3)ncc2c1=O [Cpd 15, 8-Indan-5-yl-2-[3-(4-methyl-piperazin-1-yl)-propylamino]-5-oxo-5,8-dihydro-pyrido[2,3-d]pyrimidine-6-carboxylic acid methylamide] |
| 5 | 11 |  | CNC(=O)c1cn(C2CCCCC2)c2nc(NCCN3CCCCC3)ncc2c1=O [Cpd 59, 8-Cyclohexyl-5-oxo-2-(2-piperidin-1-yl-ethylamino)-5,8-dihydro-pyrido[2,3-d]pyrimidine-6-carboxylic acid methylamide] |
| 15 | 41 |  | CONC(=O)c1cn(-c2ccc3c(c2)CCC3)c2nc(NCc3cc(OC)cc(OC)c3)ncc2c1=O [Cpd 27, 2-(3,5-Dimethoxy-benzylamino)-8-indan-5-yl-5-oxo-5,8-dihydro-pyrido[2,3-d]pyrimidine-6-carboxylic acid methoxy-amide] |
| 17 | 43 |  | COCCCNc1ncc2c(=O)c(C(N)=O)cn(-c3ccc4c(c3)CCC4)c2n1 [Cpd 7, 8-Indan-5-yl-2-(3-methoxy-propylamino)-5-oxo-5,8-dihydro-pyrido[2,3-d]pyrimidine-6-carboxylic acid amide] |
| 15 | 20 |  | NC(=O)c1cn(-c2ccc3c(c2)CCC3)c2nc(NCCN3CCCCC3)ncc2c1=O [Cpd 2, 8-Indan-5-yl-5-oxo-2-(2-piperidin-1-yl-ethylamino)-5,8-dihydro-pyrido[2,3-d]pyrimidine-6-carboxylic acid amide] |
| 29 | 67 |  | COCCNc1ncc2c(=O)c(C(N)=O)cn(C3CCCCC3)c2n1 [Cpd 35, 8-Cyclohexyl-2-(2-methoxy-ethylamino)-5-oxo-5,8-dihydro-pyrido[2,3-d]pyrimidine-6-carboxylic acid amide] |
| 12 | 35 |  | CNC(=O)c1cn(-c2ccc3c(c2)CCC3)c2nc(NCCN3CCOCC3)ncc2c1=O [Cpd 18, 8-Indan-5-yl-2-(2-morpholin-4-yl-ethylamino)-5-oxo-5,8-dihydro-pyrido[2,3-d]pyrimidine-6-carboxylic acid methylamide] |
| 10 | 21 |  | CNC(=O)c1cn(C2CCCCC2)c2nc(NCCCn3ccnc3)ncc2c1=O [Cpd 53, 8-Cyclohexyl-2-(3-imidazol-1-yl-propylamino)-5-oxo-5,8-dihydro-pyrido[2,3-d]pyrimidine-6-carboxylic acid methylamide] |

— US7728003B2, “5-oxo-5,8-dihydro-pyrido-pyrimidines as inhibitors of c-fms kinase” (Janssen Pharmaceutica N.V., priority 2005, dated 2010)
